Results published in ChEMBL document CHEMBL1201862, “PubChem BioAssay data set” (2004).
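Briefly, cells in 96-well plates were exposed to five compound concentrations for 48 h, and endpoints were estimated by linear interpolation. Abbreviation: GI50, concentration required for 50% inhibition of growth.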 Calls of active or inactive are those of the source. No stated cut-off is given here; in the data, active = GI50 up to about 1.1 µM and inactive = higher.

Tests used:
Test in all cases: DTP human tumour cell line panel, 48 h
[1] = system: A498
[2] = system: ACHN
[3] = system: DLD-1
[4] = system: DMS-273
[5] = system: HCT-15
[6] = system: HOP-92
[7] = system: K562
[8] = system: KM12
[9] = system: M19-MEL
[10] = system: MOLT-4
[11] = system: Malme-3M
[12] = system: NCI-H23
[13] = system: OVCAR-8
[14] = system: SF-268
[15] = system: UACC-257
[16] = system: UACC-62
[17] = system: HCT-116
[18] = system: SK-OV-3
[19] = system: MCF7
[20] = system: NCI/ADR-RES

Structure (SMILES) | GI50 [1] | GI50 [2] | GI50 [3] | GI50 [4] | GI50 [5] [µM] | GI50 [6] | GI50 [7] | GI50 [8] | GI50 [9] | GI50 [10] | GI50 [11] | GI50 [12] | GI50 [13] | GI50 [14] | GI50 [15] | GI50 [16] | GI50 [17] | GI50 [18] | GI50 [19] | GI50 [20]
Cc1ccc(C(=O)N2c3ccccc3N(C)n3cccc3C2CC(=O)O)cc1 (configuration not stated) | > 100 µM (inactive) | > 100 µM (inactive) | > 100 µM (inactive) | > 100 µM (inactive) | > 100 | > 100 µM (inactive) | > 100 µM (inactive) | > 100 µM (inactive) | > 100 µM (inactive) | > 100 µM (inactive) | > 100 µM (inactive) | > 100 µM (inactive) | > 100 µM (inactive) | > 100 µM (inactive) | > 100 µM (inactive) | > 100 µM (inactive) | – | – | – | –
C[C@]12CCC(=O)C(O)=C1CCC2=O | > 100 µM (inactive) | > 100 µM (inactive) | > 100 µM (inactive) | > 100 µM (inactive) | > 100 | > 100 µM (inactive) | – | > 100 µM (inactive) | > 100 µM (inactive) | > 100 µM (inactive) | > 100 µM (inactive) | – | > 100 µM (inactive) | > 100 µM (inactive) | > 100 µM (inactive) | > 100 µM (inactive) | > 100 µM (inactive) | > 100 µM (inactive) | – | –
COc1ccccc1OCC(COC(=O)Nc1ccccc1)OC(=O)Nc1ccccc1 (configuration not stated) | 60.3 µM (inactive) | > 100 µM (inactive) | > 100 µM (inactive) | 54.6 µM (inactive) | > 100 | 6.25 µM (inactive) | > 100 µM (inactive) | 68.4 µM (inactive) | – | – | 60.8 µM (inactive) | 73.1 µM (inactive) | 37.4 µM (inactive) | 57.5 µM (inactive) | > 100 µM (inactive) | 32.6 µM (inactive) | 61.1 µM (inactive) | > 100 µM (inactive) | – | –
C[C@]12CC/C(=N\O)C=C1CC[C@@H]1[C@@H]2CC[C@]2(C)C(=N/O)/C(=C/c3ccncc3)C[C@@H]12 | – | 18.7 µM (inactive) | – | – | 5.48 | 30.5 µM (inactive) | 26.4 µM (inactive) | 17.3 µM (inactive) | – | 18.8 µM (inactive) | 37.5 µM (inactive) | 31.5 µM (inactive) | 24.6 µM (inactive) | 28.7 µM (inactive) | 28.4 µM (inactive) | 16.4 µM (inactive) | 10 µM (inactive) | 51.5 µM (inactive) | 16.3 µM (inactive) | 21.2 µM (inactive)
c1ccc(-n2cnnc2-c2nsc3ccccc23)cc1 | – | 67.3 µM (inactive) | – | > 100 µM (inactive) | 74 | 53.1 µM (inactive) | > 100 µM (inactive) | > 100 µM (inactive) | > 100 µM (inactive) | > 100 µM (inactive) | – | > 100 µM (inactive) | > 100 µM (inactive) | > 100 µM (inactive) | > 100 µM (inactive) | > 100 µM (inactive) | > 100 µM (inactive) | – | – | –
C=C1C(=O)[C@@]23CC[C@H]4[C@@](C)(CCC[C@@]4(C)C(=O)OC)[C@@H]2CC[C@]1(O)C3 | 1.71 µM (inactive) | – | 0.32 µM (active) | 1.67 µM (inactive) | 1.26 | 1.78 µM (inactive) | 0.604 µM (active) | 2.39 µM (inactive) | 1.56 µM (inactive) | 0.271 µM (active) | – | 1.57 µM (inactive) | 1.47 µM (inactive) | 1.9 µM (inactive) | 1.72 µM (inactive) | 1.6 µM (inactive) | 0.953 µM (active) | 19.2 µM (inactive) | 2.12 µM (inactive) | 1.37 µM (inactive)
CC(=O)OC(C)c1cc2c(s1)C(=O)c1ccsc1C2=O (configuration not stated) | 1.82 µM (inactive) | 0.158 µM (active) | – | – | 0.124 | 0.372 µM (active) | 0.131 µM (active) | 0.169 µM (active) | – | 0.262 µM (active) | 0.102 µM (active) | 0.0575 µM (active) | 0.228 µM (active) | 0.213 µM (active) | 0.028 µM (active) | 0.0811 µM (active) | 0.226 µM (active) | 2.07 µM (inactive) | 0.0513 µM (active) | 0.271 µM (active)
C[C@H]1O[C@@H](O[C@H]2[C@@H](O)C[C@H](O[C@H]3[C@@H](O)C[C@H](O[C@H]4CC[C@@]5(C)[C@H](CC[C@@H]6[C@@H]5CC[C@]5(C)[C@@H](C7=CC(=O)OC7)CC[C@]65O)C4)O[C@@H]3C)O[C@@H]2C)C[C@H](O)[C@@H]1O [DIGITOXIN] | – | < 0.015 µM (active) | – | – | 0.0305 | 0.0422 µM (active) | < 0.0246 µM (active) | 0.0553 µM (active) | – | – | 0.028 µM (active) | 0.0185 µM (active) | – | < 0.0241 µM (active) | 0.0582 µM (active) | 0.0579 µM (active) | 0.0165 µM (active) | 0.045 µM (active) | 0.0413 µM (active) | 0.0283 µM (active)
